According to PubChem BioAssay (NCI):
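Protocol summary: plate cells (96-well), add compound at 5 concentrations, incubate 48 h, interpolate endpoints linearly. At the TGI there is no net growth.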

What was measured:
Assay in all cases: NCI anticancer screen, dose series, 48 h
786-0 renal = system: 786-0 renal
A498 renal = system: A498 renal
A549 NSCLC = system: A549 NSCLC
ACHN renal = system: ACHN renal
BT-549 breast = system: BT-549 breast
CAKI-1 renal = system: CAKI-1 renal
CCRF-CEM leukemia = system: CCRF-CEM leukemia
COLO 205 colon = system: COLO 205 colon
DU-145 prostate = system: DU-145 prostate
EKVX NSCLC = system: EKVX NSCLC
HCC-2998 colon = system: HCC-2998 colon
HCT-116 colon = system: HCT-116 colon
HCT-15 colon = system: HCT-15 colon
HL-60(TB) leukemia = system: HL-60(TB) leukemia
HOP-62 NSCLC = system: HOP-62 NSCLC
HOP-92 NSCLC = system: HOP-92 NSCLC
HS 578T breast = system: HS 578T breast
HT29 colon = system: HT29 colon
IGROV1 ovarian = system: IGROV1 ovarian
K-562 leukemia = system: K-562 leukemia
KM12 colon = system: KM12 colon
LOX IMVI melanoma = system: LOX IMVI melanoma
M14 melanoma = system: M14 melanoma
MALME-3M melanoma = system: MALME-3M melanoma
MCF7 breast = system: MCF7 breast
MDA-MB-231 breast = system: MDA-MB-231 breast
MDA-MB-435 = system: MDA-MB-435
MDA-N = system: MDA-N
MOLT-4 leukemia = system: MOLT-4 leukemia
NCI-H226 lung = system: NCI-H226 lung
NCI-H23 lung = system: NCI-H23 lung
NCI-H460 lung = system: NCI-H460 lung
NCI-H522 lung = system: NCI-H522 lung
NCI/ADR-RES ovarian = system: NCI/ADR-RES ovarian
OVCAR-3 ovarian = system: OVCAR-3 ovarian
OVCAR-4 ovarian = system: OVCAR-4 ovarian
OVCAR-5 ovarian = system: OVCAR-5 ovarian
OVCAR-8 ovarian = system: OVCAR-8 ovarian
RXF 393 renal = system: RXF 393 renal
SF-268 CNS = system: SF-268 CNS
SF-295 CNS = system: SF-295 CNS
SF-539 CNS = system: SF-539 CNS
SK-MEL-2 melanoma = system: SK-MEL-2 melanoma
SK-MEL-28 melanoma = system: SK-MEL-28 melanoma
SK-MEL-5 melanoma = system: SK-MEL-5 melanoma
SK-OV-3 ovarian = system: SK-OV-3 ovarian
SN12C renal = system: SN12C renal
SNB-75 CNS = system: SNB-75 CNS
SR leukemia = system: SR leukemia
SW-620 colon = system: SW-620 colon
T-47D breast = system: T-47D breast
TK-10 renal = system: TK-10 renal
U251 CNS = system: U251 CNS
UACC-257 melanoma = system: UACC-257 melanoma
UACC-62 melanoma = system: UACC-62 melanoma
UO-31 renal = system: UO-31 renal
PC-3 prostate = system: PC-3 prostate
RPMI-8226 leukemia = system: RPMI-8226 leukemia
SNB-19 CNS = system: SNB-19 CNS

NC1CC(Cl)c2c(Cl)sc(Cl)c21 (stereo not drawn) showed a TGI (786-0 renal) of over 100 µM, a TGI (A498 renal) of over 100 µM and a TGI (A549 NSCLC) of over 100 µM. For the same compound, the TGI (ACHN renal) was over 100 µM, the TGI (BT-549 breast) was over 100 µM and the TGI (CAKI-1 renal) was over 100 µM. It also gave a TGI (CCRF-CEM leukemia) of over 100 µM, a TGI (COLO 205 colon) of over 100 µM and a TGI (DU-145 prostate) of over 100 µM. The TGI (EKVX NSCLC) was over 100 µM, the TGI (HCC-2998 colon) was over 100 µM and the TGI (HCT-116 colon) was over 100 µM. The TGI (HCT-15 colon) was over 100 µM, the TGI (HL-60(TB) leukemia) was over 100 µM and the TGI (HOP-62 NSCLC) was over 100 µM. For the same compound, the TGI (HOP-92 NSCLC) was over 100 µM, the TGI (HS 578T breast) was over 100 µM and the TGI (HT29 colon) was over 100 µM. The TGI (IGROV1 ovarian) was over 100 µM, the TGI (K-562 leukemia) was over 100 µM and the TGI (KM12 colon) was over 100 µM. It also gave a TGI (LOX IMVI melanoma) of over 100 µM, a TGI (M14 melanoma) of over 100 µM and a TGI (MALME-3M melanoma) of over 100 µM. The TGI (MCF7 breast) was over 100 µM, the TGI (MDA-MB-231 breast) was over 100 µM and the TGI (MDA-MB-435) was over 100 µM. It also gave a TGI (MDA-N) of over 100 µM, a TGI (MOLT-4 leukemia) of over 100 µM and a TGI (NCI-H226 lung) of over 100 µM. It also gave a TGI (NCI-H23 lung) of over 100 µM, a TGI (NCI-H460 lung) of over 100 µM and a TGI (NCI-H522 lung) of 0.049 µM. For the same compound, the TGI (NCI/ADR-RES ovarian) was over 100 µM, the TGI (OVCAR-3 ovarian) was over 100 µM and the TGI (OVCAR-4 ovarian) was over 100 µM. For the same compound, the TGI (OVCAR-5 ovarian) was over 100 µM, the TGI (OVCAR-8 ovarian) was over 100 µM and the TGI (RXF 393 renal) was over 100 µM. For the same compound, the TGI (SF-268 CNS) was over 100 µM, the TGI (SF-295 CNS) was over 100 µM and the TGI (SF-539 CNS) was over 100 µM. It also gave a TGI (SK-MEL-2 melanoma) of over 100 µM, a TGI (SK-MEL-28 melanoma) of over 100 µM and a TGI (SK-MEL-5 melanoma) of over 100 µM. The TGI (SK-OV-3 ovarian) was over 100 µM, the TGI (SN12C renal) was over 100 µM and the TGI (SNB-75 CNS) was over 100 µM. It also gave a TGI (SR leukemia) of over 100 µM, a TGI (SW-620 colon) of over 100 µM and a TGI (T-47D breast) of over 100 µM. The TGI (TK-10 renal) was over 100 µM, the TGI (U251 CNS) was over 100 µM and the TGI (UACC-257 melanoma) was over 100 µM. The TGI (UACC-62 melanoma) was over 100 µM and the TGI (UO-31 renal) was over 100 µM.

In the case of CCOC(=O)/C(=C\c1ccc(C#N)cc1)C(C)=O, the TGI (786-0 renal) is reported as 32.9 µM, the TGI (A498 renal) is reported as 30 µM and the TGI (A549 NSCLC) is reported as over 100 µM. For the same compound, the TGI (ACHN renal) was 68.6 µM, the TGI (BT-549 breast) was 37 µM and the TGI (CAKI-1 renal) was over 100 µM. For the same compound, the TGI (CCRF-CEM leukemia) was over 100 µM, the TGI (COLO 205 colon) was over 100 µM and the TGI (DU-145 prostate) was 37.7 µM. The TGI (EKVX NSCLC) was over 100 µM, the TGI (HCC-2998 colon) was 19.6 µM and the TGI (HCT-116 colon) was 57.3 µM. For the same compound, the TGI (HCT-15 colon) was 40 µM, the TGI (HL-60(TB) leukemia) was over 100 µM and the TGI (HOP-62 NSCLC) was over 100 µM. It also gave a TGI (HOP-92 NSCLC) of 50.6 µM, a TGI (HS 578T breast) of 88.6 µM and a TGI (HT29 colon) of over 100 µM. The TGI (IGROV1 ovarian) was 33.9 µM, the TGI (K-562 leukemia) was over 100 µM and the TGI (KM12 colon) was 43 µM. The TGI (LOX IMVI melanoma) was 34.5 µM, the TGI (M14 melanoma) was 95.1 µM and the TGI (MALME-3M melanoma) was 31.5 µM. The TGI (MCF7 breast) was 61.9 µM, the TGI (MDA-MB-231 breast) was 33.3 µM and the TGI (MDA-MB-435) was 98.3 µM. The TGI (MDA-N) was over 100 µM, the TGI (MOLT-4 leukemia) was over 100 µM and the TGI (NCI-H226 lung) was 89.3 µM. The TGI (NCI-H23 lung) was 36.7 µM, the TGI (NCI-H460 lung) was over 100 µM and the TGI (NCI-H522 lung) was 24.9 µM. It also gave a TGI (NCI/ADR-RES ovarian) of over 100 µM, a TGI (OVCAR-3 ovarian) of over 100 µM and a TGI (OVCAR-4 ovarian) of 97.9 µM. It also gave a TGI (OVCAR-5 ovarian) of over 100 µM, a TGI (OVCAR-8 ovarian) of 96.9 µM and a TGI (PC-3 prostate) of 39.1 µM. It also gave a TGI (RPMI-8226 leukemia) of 54.5 µM, a TGI (RXF 393 renal) of 30.6 µM and a TGI (SF-268 CNS) of 87.2 µM. The TGI (SF-295 CNS) was over 100 µM, the TGI (SF-539 CNS) was over 100 µM and the TGI (SK-MEL-2 melanoma) was 31.3 µM. It also gave a TGI (SK-MEL-5 melanoma) of 41 µM, a TGI (SK-OV-3 ovarian) of over 100 µM and a TGI (SN12C renal) of 62.8 µM. The TGI (SNB-19 CNS) was over 100 µM, the TGI (SNB-75 CNS) was 45.5 µM and the TGI (SW-620 colon) was over 100 µM. For the same compound, the TGI (T-47D breast) was 68.2 µM, the TGI (TK-10 renal) was 57.1 µM and the TGI (U251 CNS) was 32.7 µM. For the same compound, the TGI (UACC-257 melanoma) was 43.2 µM, the TGI (UACC-62 melanoma) was 17.5 µM and the TGI (UO-31 renal) was 28 µM.
